Laboratory results as given in patent publication US6258790A, “Antisense modulation of integrin α4 expression” (Isis Pharmaceuticals, Inc., priority 1999, dated 2001).

Test system: human integrin α4
Assay: Inhibition of human integrin α4 protein levels by antisense oligonucleotides (LIPOFECTIN, flow cytometry with CD49d-FITC) in A375 melanoma cells
Type: cell-based
Design: % Inhib.: tested at 200 nM
Conditions: for inhibition (Example 11): Example 11 assay, dose not stated
Text: Integrin α4 protein levels can be quantitated in a variety of ways well known in the art, such as immunoprecipitation, Western blot analysis (immunoblotting), ELISA or fluorescence-activated cell sorting (FACS). Antibodies directed to integrin α4 can be identified and obtained from a variety of sources, such as the MSRS catalog of antibodies (Aerie Corporation, Birmingham, Mich.), or can be prepared via conventional antibody generation methods.
Target sites are indicated by nucleotide numbers, as given in the sequence source reference (GenBank accession no. L12002), to which the oligonucleotide binds. All compounds in Table 1 are 18 nucleotides in length, with a phosphorothioate backbone and a centered 10-base deoxynucleotide gap flanked by 2'-methoxyethoxy (2'MOE) wings. Human A375 melanoma cells (American Type Culture Collection, Manassas, Va.) were plated at 2000 cells/cm^2 two days before oligonucleotide treatment. Cells were treated with oligonucleotides at a dose of 200 nM oligonucleotide and 6 ug/ml LIPOFECTIN for four hours. Cells were incubated overnight and harvested with 2 mM EDTA in PBS. Cells were washed in 2% bovine serum albumin, 0.2% sodium azide in D-PBS at 4° C. Cells were centrifuged at 200×g, and the supernatant was decanted. […] Antibodies were incubated with the cells for 30 minutes at 4° C. in the dark, under gentle agitation. Cells were washed again as above and then resuspended in 0.3 ml of FacsFlow buffer with 0.5% formaldehyde. Cells were analyzed on Becton Dickinson FACScan. Results are expressed as percentage of control expression based on mean fluorescence intensity.
Cells were harvested with trypsin at 48 and 72 hours after oligonucleotide treatment and stained with 2 ug/ml CD49d-FITC as in the previous example.
Where backbones are mixed, linkages are shown as "s" for phosphorothioate (P=S or PS) and "o" for phosphodiester (P=O or PO). Where target region is indicated as `M62841,` oligonucleotides are targeted to the promotor region whose sequence is described in GenBank Accession No. M62841. Remaining oligonucleotides are targeted to the sequence described in Genbank Accession No. L12002 and their target sites on the L12002 sequence are indicated.
Target sites refer to nucleotide numbers on the target sequence (GenBank Accession No. L12002) to which the oligonucleotides hybridize.
Oligonucleotides were synthesized as "gapmers" consisting of a 9-nucleotide region of deoxynucleotides flanked by three 2'-O-methoxyethyl(2'-MOE) nucleotides on the 5' end and eight 2'-MOE nucleotides on the 3' end. 2'-MOE nucleotides are shown in bold in the table. Oligonucleotides were synthesized with phosphorothioate backbones throughout, and all cytosines are 5-methylcytosines.

[1] = Table 24, A375 cells, lipofectin, as Example 8

26640 (CCACTGATTGTCTCTCTCTT; phosphorothioate, 2'-MOE/deoxy, further chemistry not given here) [compound 26640]
inhibition (Example 11): ≥ 40% | % Control (Table 6, 10 nM): 91% | % Control (Table 6, 30 nM): 83% | % Inhib. (Table 6, 30 nM): 17% | % Control (Table 6, 100 nM): 62% | % Inhib. (Table 6, 100 nM): 38% | % Control (Table 6, 300 nM): 35% | % Inhib. (Table 6, 300 nM (highest dose)): 65%

26641 (GAGCTTATTTTCATTCTTTA; phosphorothioate, 2'-MOE/deoxy, further chemistry not given here) [compound 26641]
inhibition (Example 11): ≥ 40% | % Control (Table 6, 10 nM): 88% | % Inhib. (Table 6, 10 nM): 12% | % Control (Table 6, 30 nM): 85% | % Inhib. (Table 6, 30 nM): 15% | % Control (Table 6, 100 nM): 67% | % Inhib. (Table 6, 100 nM): 33% | % Control (Table 6, 300 nM): 31% | % Inhib. (Table 6, 300 nM (highest dose)): 69%

26642 (TCAGGGTGGCTTAAAGAAGC; phosphorothioate, 2'-MOE/deoxy, further chemistry not given here) [compound 26642]
inhibition (Example 11): ≥ 40% | % Control (Table 6, 10 nM): 84% | % Inhib. (Table 6, 10 nM): 16% | % Control (Table 6, 30 nM): 77% | % Inhib. (Table 6, 30 nM): 23% | % Control (Table 6, 100 nM): 56% | % Inhib. (Table 6, 100 nM): 44% | % Control (Table 6, 300 nM): 23% | % Inhib. (Table 6, 300 nM (highest dose)): 77% | % Control [1]: 67% | % Inhib. [1]: 33%

26643 (TTGCCCTTATATGAGAAACA; phosphorothioate, 2'-MOE, 5-methyl-C, further chemistry not given here) [compound 26643]
% Control (Table 4, 10 nM): 90% | % Inhib. (Table 4, 10 nM): 10% | % Control (Table 4, 30 nM): 95% | % Control (Table 4, 100 nM): 93% | % Control (Table 4, 300 nM): 66% | % Inhib. (Table 4, 300 nM (highest dose)): 34%

26644 (TTTCCATTCTCTCAATTTGA; phosphorothioate, 2'-MOE/deoxy, further chemistry not given here) [compound 26644]
inhibition (Example 11): ≥ 40% | % Control (Table 6, 10 nM): 99% | % Control (Table 6, 30 nM): 94% | % Control (Table 6, 100 nM): 78% | % Inhib. (Table 6, 100 nM): 22% | % Control (Table 6, 300 nM): 48% | % Inhib. (Table 6, 300 nM (highest dose)): 52%

100025 (antisense CCCAGCACATCGGCTCTCGG; chemistry not given here) [compound 100025]
% Control [1]: 97% | % Inhib. [1]: 3%

107229 (antisense AGTCCGCAGAGCGCGGGATG; chemistry not given here) [compound 107229]
% Control [1]: 104%

107230 (antisense AGACTCGCGTCCTGGCCCGG; chemistry not given here) [compound 107230]
% Control [1]: 73% | % Inhib. [1]: 27%

107231 (antisense GTGCGGAGGCGCAGGGCCGG; chemistry not given here) [compound 107231]
% Control [1]: 115%

107232 (antisense CCGGTTTCTGCCGCCGAGCC; chemistry not given here) [compound 107232]
% Control [1]: 83% | % Inhib. [1]: 17%

107233 (antisense ATGCGACGGTTGGCCAACGG; chemistry not given here) [compound 107233]
% Control [1]: 57% | % Inhib. [1]: 43%

107234 (antisense CTTCCCAAGCCATGCGCTCT; chemistry not given here) [compound 107234]
% Control [1]: 47%

107235 (antisense TCGCTTCCCAAGCCATGCGC; chemistry not given here) [compound 107235]
% Control [1]: 36%

107236 (antisense GCCTCGCTTCCCAAGCCATG; chemistry not given here) [compound 107236]
% Control [1]: 43%

107237 (antisense CGCGCCTCGCTTCCCAAGCC; chemistry not given here) [compound 107237]
% Control [1]: 46%

107238 (antisense TCCTTGCCCTTATATGAGAA; chemistry not given here) [compound 107238]
% Control [1]: 49%

107239 (antisense ACTTCCTTGCCCTTATATGA; chemistry not given here) [compound 107239]
% Control [1]: 29%

107240 (antisense AGAGTTATCTGTGACTTCAC; chemistry not given here) [compound 107240]
% Control [1]: 40%

107241 (antisense GATACTGAGGTCCTCTTCCG; chemistry not given here) [compound 107241]
% Control [1]: 36%

107242 (antisense TGAGATCAACAGAAGTACAA; chemistry not given here) [compound 107242]
% Control [1]: 44%

107243 (antisense CCAGCCTTCCACATAACATA; chemistry not given here) [compound 107243]
% Control [1]: 39%

107244 (antisense AGGATAGATTTGTATTGTCT; chemistry not given here) [compound 107244]
% Control [1]: 37%

107246 (antisense TAATCATCATTGCTTTTACT; chemistry not given here) [compound 107246]
% Control [1]: 42%

107247 (antisense AAGAAGTCCTTAATCATCAT; chemistry not given here) [compound 107247]
% Control [1]: 65% | % Inhib. [1]: 35%

107249 (antisense CTTGTAAACAGTGTCTTTTA; chemistry not given here) [compound 107249]
% Control [1]: 38%

107250 (antisense GAGTAAAAGAAGTCCAAACA; chemistry not given here) [compound 107250]
% Control [1]: 57% | % Inhib. [1]: 43%

107251 (antisense CCTTGCATGAAGACATAATA; chemistry not given here) [compound 107251]
% Control [1]: 40%

107253 (antisense TCTTTGGCTGTATTATTACC; chemistry not given here) [compound 107253]
% Control [1]: 29%

107254 (antisense TGCTTTAGTGTTTCTCTACC; chemistry not given here) [compound 107254]
% Control [1]: 33%

107256 (antisense GAGGCAAGCACATATGGTAA; chemistry not given here) [compound 107256]
% Control [1]: 45%

107257 (antisense TGAAATGAACCTCTGCCCAC; chemistry not given here) [compound 107257]
% Control [1]: 44%

107258 (antisense TTAAAGTGATAATGGTCCAC; chemistry not given here) [compound 107258]
% Control [1]: 39%
